Results: patent publication US20040092532A1, “Use of p38 inhibitors for the treatment of smoke inhalation” (priority 2003, published 2004)

Legend:
[1] = tested on: antigen-induced hypertussive response to citric acid; test: Antigen-Induced Hypertussive Model (ovalbumin, citric acid challenge); format: in vivo; conditions: sensitized guinea pigs exposed to inhaled ovalbumin
Description: The effects of the compound are then assessed on the hypertussive response that occurs 72 hours post aerosol exposure to antigen or LTD4 exposure. Treatment of the animals occurs with the drug prior and/or after antigen or LTD4 challenge, but not on the day of citric acid challenge. Inhalation of citric acid (CA; 0.4% for 1 minute) induced 11 to 15 coughs, during the exposure and 12-minute monitoring period in conscious guinea pigs.

[2] = tested on: LTD4-induced hypertussive response and airway eosinophilia; test: LTD4-Induced Hypertussive Model (citric acid challenge); format: in vivo, guinea pigs; conditions: oral 30 mg/kg b.i.d., inhaled LTD4 10 ug/ml for 1 minute, 72 hours after exposure
Description: The effects of the compound are then assessed on the hypertussive response that occurs 72 hours post aerosol exposure to antigen or LTD4 exposure. Treatment of the animals occurs with the drug prior and/or after antigen or LTD4 challenge, but not on the day of citric acid challenge. […] Similarly, inhalation of LTD4 (10 ug/ml for 1 minute) increased cough incidence and airway esoinophiles 72 hours after exposure.

[3] = tested on: citric acid-induced cough; test: Citric Acid Induced Cough Model (direct antitussive activity); format: in vivo; conditions: inhaled citric acid-induced cough, conscious guinea pigs; FIG. 4
Description: The directed antitussive activity of the compound in question if first assessed, by a 10 to 30 minute pretreatment period by intraperitoneal injection or a 1 hour pretreatment period for oral administration. The animals (guinea pigs) are then subjected to an inhaled citric acid-induced cough challenge. Inhalation of citric acid (CA; 0.4% for 1 minute) induced 11 to 15 coughs, during the exposure and 12-minute monitoring period in conscious guinea pigs.

With `COc1nccc(-c2c(-c3ccc(F)cc3)ncn2[C@H]2CC[C@H](O)CC2)n1` [Compound I, trans-1-(4-Hydroxycyclohexyl)-4-(4-fluorophenyl)-5-[(2methoxy)pyrimidin-4-yl]imidazole] as the molecule, how does the airway eosinophilia ([1]; bronchoalveolar lavage) read?
Its airway eosinophilia is “reduce airway eosinophilia”.

And the “hypertussive state (CA-induced cough incidence)” value ([1]; citric acid challenge)?
The value was “normalizes the hypertussive state”.

And the LTD4-induced eosinophilia [2]?
Its LTD4-induced eosinophilia is “blocked the LTD4-induced esoinophilia”.

What about the “cough response after LTD4” value ([2]; FIG. 5) of the same molecule?
Its value is “normalized the cough response”.

And the direct antitussive effect [3]?
Its direct antitussive effect is “no direct antitussive effect”.
